Laboratory results: patent US20120088774A1, “ACTIVE PHARMACEUTICAL INGREDIENT ADSORBED ON SOLID SUPPORT” (LEK PHARMACEUTICALS D.D., priority 2009, published 2012)

Tests used:
[1] = Dissolution of crystalline simvastatin and simvastatin adsorbate in 0.02M hydrochloric acid; type: physicochemical
Protocol: 0.2 g of simvastatin was dissolved in 50 ml of dichloromethane. 2 g of a the SYLOID® AL1 was added to the solution. Subsequently the solvent was removed by evaporation. The sample was analysed using X-ray powder diffraction (XRPD). Using XRPD it was confirmed that the API in the product was amorphous. The use of dichloromethane as the solvent for simvastatin and SYLOID® AL1 as the carrier gives the adsorbate according to the invention.

[2] = Dissolution of crystalline lovastatin and lovastatin adsorbate in 0.02M hydrochloric acid; type: physicochemical
Protocol: 0.2 g of lovastatin was dissolved in a mixture of 10 ml trichloromethane and 40 ml diisopropyl ether. 2 g of a the SYLOID® AL1 was added to the solution. Subsequently the solvent was removed by evaporation.

[3] = Dissolution of crystalline tadalafil, tadalafil adsorbate and precipitates on carriers; type: physicochemical; settings: 20 mM phosphate buffer pH 6.9
Protocol: The carriers comprising tadalafil have been prepared as described in example 1.
0.1 g of tadalafil was dissolved in 20 ml of dichloromethane. 5 ml of the resulting solution was added to 0.25 g of a solid support (Aerosil® 380, Al2O3, MgO, TiO2). Subsequently the solvent was removed by evaporation.

[4] = crystalline solid; term defined as less or equal to 0.1 mg/ml; cited from earlier work

With `CC[C@H](C)C(=O)O[C@H]1C[C@@H](C)C=C2C=C[C@H](C)[C@H](CC[C@@H]3C[C@@H](O)CC(=O)O3)[C@H]21` [Crystalline lovastatin, lovastatin] the Amount dissolved ([1]; 2 min) was 0.848 µg/mL, the Amount dissolved ([1]; 5 min) was 1.667 µg/mL and the Amount dissolved ([1]; 10 min) was 1.853 µg/mL. The Amount dissolved ([1]; 15 min) was 1.859 µg/mL, the Amount dissolved ([1]; 25 min) was 2.031 µg/mL and the Amount dissolved ([1]; 40 min) was 2.145 µg/mL. It also gave an Amount dissolved ([1]; 60 min) of 2.175 µg/mL, an Amount dissolved ([2]; 2 min) of 0.298 µg/mL and an Amount dissolved ([2]; 5 min) of 0.403 µg/mL. It also gave an Amount dissolved ([2]; 10 min) of 0.418 µg/mL, an Amount dissolved ([2]; 15 min) of 0.501 µg/mL and an Amount dissolved ([2]; 25 min) of 0.625 µg/mL. For the same molecule, the Amount dissolved ([2]; 40 min) was 0.523 µg/mL and the Amount dissolved ([2]; 60 min) was 0.62 µg/mL.

With `CN1CC(=O)N2[C@H](c3ccc4c(c3)OCO4)c3[nH]c4ccccc4c3C[C@@H]2C1=O` [Crystalline tadalafil, (6R,12aR)-6-(1,3-Benzodioxol-5-yl)-2,3,6,7,12,12a-hexahydro-2-methyl-pyrazino[1′,2′:1,6]pyrido[3,4-b]indole-1,4-dione] the Amount dissolved ([3]; 2 min) was 2.9 µg/mL, the Amount dissolved ([3]; 5 min) was 14.6 µg/mL and the Amount dissolved ([3]; 10 min) was 24.2 µg/mL. For the same molecule, the Amount dissolved ([3]; 15 min) was 27.0 µg/mL, the Amount dissolved ([3]; 25 min) was 32.9 µg/mL and the Amount dissolved ([3]; 40 min) was 34.4 µg/mL. The solubility in water [4] was “practically insoluble in water”.
